Literature values as cited in patent EP0840727B1, “3-HYDROXY-2(1H)-[…] AGENTS” (priority 1995, dated 1997).
Marks after values point to notes of the source that are not given here.

Settings: ligand 30 µmol kg^-1 ip at 1 h after iv ^238Pu(IV) citrate, kill at 24 h, reported previously, cited from earlier work; for percent of injected ^238Pu at 24 h, excreta: feces and GI contents / percent of injected ^238Pu at 24 h, excreta: urine 0-24 h / percent of injected ^238Pu at 24 h, tissues: kidneys: pooled samples

Structure (SMILES) | percent of injected ^238Pu at 24 h, excreta: feces and GI contents | percent of injected ^238Pu at 24 h, excreta: urine 0-24 h | percent of injected ^238Pu at 24 h, tissues: kidneys | percent of injected ^238Pu ± SD at 24 h, tissues: liver | percent of injected ^238Pu ± SD at 24 h, tissues: skeleton | percent of injected ^238Pu ± SD at 24 h, tissues: soft tissue | percent of injected ^238Pu ± SD at 24 h, whole body
CC(=O)N(O)CCCCCNC(=O)CCC(=O)N(O)CCCCCNC(=O)CCC(=O)N(O)CCCCCN [DFO, desferrioxamine B] | 15.1% of injected ^238Pu | 38% of injected ^238Pu | 1.8% of injected ^238Pu | 19 ± 13% of injected ^238Pu | 20 ± 11% of injected ^238Pu | 4.5 ± 1.4% of injected ^238Pu | 45 ± 2.5% of injected ^238Pu
CC(=O)N(O)CCCCCNC(=O)CCC(=O)N(O)CCCCCNC(=O)CCC(=O)N(O)CCCCCNC(=O)c1ccn(C)c(=O)c1O [DFO-Me-3,2-HOPO] | 26.4% of injected ^238Pu | 21% of injected ^238Pu | 3.0% of injected ^238Pu | 13 ± 3.5% of injected ^238Pu | 17 ± 2.4% of injected ^238Pu | 19 ± 3.0% of injected ^238Pu | 53 ± 3.4% of injected ^238Pu
O=C(NCCCN(CCCCN(CCCNC(=O)c1cccc(=O)n1O)C(=O)c1cccc(=O)n1O)C(=O)c1cccc(=O)n1O)c1cccc(=O)n1O [3,4,3-LI(1,2-HOPO)] | 57% of injected ^238Pu | 23% of injected ^238Pu | 0.2% of injected ^238Pu | 8.9 ± 1.7^d percent of injected ^238Pu | 7.5 ± 0.7^d percent of injected ^238Pu | 1.6 ± 0.6^d percent of injected ^238Pu | 18 ± 1.7^d percent of injected ^238Pu
